Source: US20080125480A1, “Oil-In-Water Formulation Of Avermectins” (priority 2004, published 2008)

Legend:
[1] = Stability of Abamectin in water exposed to light at various pH-values (HPLC); assay type: physicochemical
Procedure: The stability of Abamectin in water exposed to light at various pH-values was determined. 194.4 mg of abamectin was dissolved in 10 ml methanol and 1 ml of the solution transferred to 100 ml of demineralised water and a part of this transferred to a buffer solution. […]

[2] = Stability of Abamectin in water at various pH-values and temperatures (dark, HPLC); assay type: physicochemical
Procedure: The stability of Abamectin in water at various pH-values and temperatures was determined. 194.4 mg of abamectin was dissolved in 10 ml methanol and 1 ml of the solution transferred to 100 ml of de-mineralised water and a part of this was transferred to a buffer solution. The sample was kept in the dark and the solution analysed using a HPLC.

Substance: Abamectin
- Abamectin concentration ([1]; pH 4.0, 25° C., Dark, 7 days): 3.130 ppm
- Abamectin concentration ([1]; pH 4.0, 25° C., Dark, 14 days): 2.782 ppm
- Abamectin concentration ([1]; pH 4.0, 25° C., Dark, 21 days): 2.566 ppm
- Abamectin concentration ([1]; pH 4.0, 25° C., Dark, 28 days): 2.524 ppm
- Abamectin concentration ([1]; pH 4.0, 25° C., Dark, Initial): 3.495 ppm
- Abamectin concentration ([1]; pH 4.0, 25° C., Light (5000-6000 lux), 7 days): 2.923 ppm
- Abamectin concentration ([1]; pH 4.0, 25° C., Light (5000-6000 lux), 14 days): 2.332 ppm
- Abamectin concentration ([1]; pH 4.0, 25° C., Light (5000-6000 lux), 21 days): 1.961 ppm
- Abamectin concentration ([1]; pH 4.0, 25° C., Light (5000-6000 lux), 28 days): 1.666 ppm
- Abamectin concentration ([1]; pH 4.0, 25° C., Light (5000-6000 lux), Initial): 3.495 ppm
- Abamectin concentration ([1]; pH 7.0, 25° C., Dark, 7 days): 3.188 ppm
- Abamectin concentration ([1]; pH 7.0, 25° C., Dark, 14 days): 3.040 ppm
- Abamectin concentration ([1]; pH 7.0, 25° C., Dark, 21 days): 2.829 ppm
- Abamectin concentration ([1]; pH 7.0, 25° C., Dark, 28 days): 2.676 ppm
- Abamectin concentration ([1]; pH 7.0, 25° C., Dark, Initial): 3.327 ppm
- Abamectin concentration ([1]; pH 7.0, 25° C., Light (5000-6000 lux), 7 days): 2.941 ppm
- Abamectin concentration ([1]; pH 7.0, 25° C., Light (5000-6000 lux), 14 days): 2.529 ppm
- Abamectin concentration ([1]; pH 7.0, 25° C., Light (5000-6000 lux), 21 days): 2.223 ppm
- Abamectin concentration ([1]; pH 7.0, 25° C., Light (5000-6000 lux), 28 days): 2.034 ppm
- Abamectin concentration ([1]; pH 7.0, 25° C., Light (5000-6000 lux), Initial): 3.327 ppm
- Abamectin concentration ([1]; pH 9.0, 25° C., Dark, 7 days): 3.005 ppm
- Abamectin concentration ([1]; pH 9.0, 25° C., Dark, 14 days): 2.596 ppm
- Abamectin concentration ([1]; pH 9.0, 25° C., Dark, 21 days): 2.380 ppm
- Abamectin concentration ([1]; pH 9.0, 25° C., Dark, 28 days): 2.287 ppm
- Abamectin concentration ([1]; pH 9.0, 25° C., Dark, Initial): 3.555 ppm
- Abamectin concentration ([1]; pH 9.0, 25° C., Light (5000-6000 lux), 7 days): 3.163 ppm
- Abamectin concentration ([1]; pH 9.0, 25° C., Light (5000-6000 lux), 14 days): 2.810 ppm
- Abamectin concentration ([1]; pH 9.0, 25° C., Light (5000-6000 lux), 21 days): 2.360 ppm
- Abamectin concentration ([1]; pH 9.0, 25° C., Light (5000-6000 lux), 28 days): 2.173 ppm
- Abamectin concentration ([1]; pH 9.0, 25° C., Light (5000-6000 lux), Initial): 3.555 ppm
- Abamectin concentration ([2]; pH 4.0, 25 °C, 7 days): 3.130 ppm
- Abamectin concentration ([2]; pH 4.0, 25 °C, 14 days): 2.782 ppm
- Abamectin concentration ([2]; pH 4.0, 25 °C, 21 days): 2.566 ppm
- Abamectin concentration ([2]; pH 4.0, 25 °C, 28 days): 2.524 ppm
- Abamectin concentration ([2]; pH 4.0, 25 °C, Initial): 3.495 ppm
- Abamectin concentration ([2]; pH 4.0, 50 °C, 7 days): 1.054 ppm
- Abamectin concentration ([2]; pH 4.0, 50 °C, 14 days): 0.383 ppm
- Abamectin concentration ([2]; pH 4.0, 50 °C, 21 days): 0.123 ppm
- Abamectin concentration ([2]; pH 4.0, 50 °C, 28 days): 0.0609 ppm
- Abamectin concentration ([2]; pH 4.0, 50 °C, Initial): 3.495 ppm
- Abamectin concentration ([2]; pH 7.0, 25 °C, 7 days): 3.188 ppm
- Abamectin concentration ([2]; pH 7.0, 25 °C, 14 days): 3.040 ppm
- Abamectin concentration ([2]; pH 7.0, 25 °C, 21 days): 2.829 ppm
- Abamectin concentration ([2]; pH 7.0, 25 °C, 28 days): 2.676 ppm
- Abamectin concentration ([2]; pH 7.0, 25 °C, Initial): 3.327 ppm
- Abamectin concentration ([2]; pH 7.0, 50 °C, 7 days): 2.952 ppm
- Abamectin concentration ([2]; pH 7.0, 50 °C, 14 days): 2.780 ppm
- Abamectin concentration ([2]; pH 7.0, 50 °C, 21 days): 2.194 ppm
- Abamectin concentration ([2]; pH 7.0, 50 °C, 28 days): 1.949 ppm
- Abamectin concentration ([2]; pH 7.0, 50 °C, Initial): 3.327 ppm
- Abamectin concentration ([2]; pH 9.0, 25 °C, 7 days): 3.005 ppm
- Abamectin concentration ([2]; pH 9.0, 25 °C, 14 days): 2.596 ppm
- Abamectin concentration ([2]; pH 9.0, 25 °C, 21 days): 2.380 ppm
- Abamectin concentration ([2]; pH 9.0, 25 °C, 28 days): 2.287 ppm
- Abamectin concentration ([2]; pH 9.0, 25 °C, Initial): 3.555 ppm
- Abamectin concentration ([2]; pH 9.0, 50 °C, 7 days): 1.265 ppm
- Abamectin concentration ([2]; pH 9.0, 50 °C, 14 days): 0.519 ppm
- Abamectin concentration ([2]; pH 9.0, 50 °C, 21 days): 0.205 ppm
- Abamectin concentration ([2]; pH 9.0, 50 °C, 28 days): 0.0628 ppm
- Abamectin concentration ([2]; pH 9.0, 50 °C, Initial): 3.555 ppm
